Assay type in all cases: biochemical
One assay addresses T1, human GST-CLK1 (129-end) (Homo sapiens, UniProt P49759).
T1 construct: purified human GST-CLK1 (129-end, Signalchem) enzyme; GST; purchased Signalchem
Description: GST-CLK1 enzyme inhibition, ADP-Glo kinase assay. The following applies: ATP 10 uM. The method, boiled down: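 GST-CLK1 (129-end, 3 ng) reacted with 10 uM ATP and substrate in 40 mM Tris-HCl pH 7.4, 20 mM MgCl2, 0.5 mg/mL BSA, 50 uM DTT, 1 h at 25° C. ADP-Glo luminescence normalised to solvent control; IC50 from triplicate data.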

Assay [1] deals with T2, human GST-DYRK1A (full length) (Homo sapiens, UniProt Q13627).
T2 construct: purified human GST-DYRK1A (full length, Thermo scientifics) enzyme; GST; purchased Thermo scientifics
Put plainly: GST-DYRK1A enzyme inhibition, ADP-Glo kinase assay. Particulars: read-out: DYRK1 IC50. In a few lines:
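Full-length human GST-DYRK1A (10 ng) incubated with 10 uM ATP and specific substrate for 1 h at 25° C in 40 mM Tris-HCl pH 7.4, 20 mM MgCl2, 0.5 mg/mL BSA, 50 uM DTT. ADP formation read by ADP-Glo luminescence; IC50 (nM) versus solvent control, triplicate.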

Another assay addresses LRRK2 (Homo sapiens, UniProt Q5S007). Put plainly: LRRK2 enzyme inhibition, ADP-Glo kinase assay. Details: purchased Invitrogen PR8604B. The method, then: In order to evaluate the inhibitory activity of the compounds according to the present invention on LRRK2, LRRK2 (G2019S), DYRK1, CLK1 and TTK kinases, the following experiment was performed.
Example compounds were reacted with the purified human LRRK2 (Invitrogen #PR8604B) enzyme to evaluate the enzyme inhibitory ability as follows. The reaction buffer was used as the composition of 40 mM Tris-HCl pH7.4, 20 mM MgCl2, 0.5 mg/ml BSA and 50 μM DTT, and the reaction of all test materials was performed on the reaction buffer. The compound was diluted with 10 mM DMSO stock in 12 steps by a serial dilution method, and the enzyme activity was measured at the final compound concentrations of 50, 10, 2, 0.4, 0.08, 0.016, 0.0032, 0.00064, 0.000128, 0.0000256, 0.00000512 and 0.000001024 μM. In the test, the human LRRK2 (25 ng) enzyme was reacted with the purified ATP (10 μM) and an enzyme substrate ([…]) at 25° C. for 2 hours, and then the enzyme activity was identified using the in vitro ADP-Glo™ kinase assay (promega). The enzyme activity reaction liquid, an ADP-Glo reaction liquid and an enzyme potency detection solution were reacted in a ratio of 2:2:1, and the degree of inhibition of enzyme activity was measured by Luminescence. The degree of inhibition of enzyme activity according to the treatment concentrations of the respective compounds was calculated based on the fluorescence of the enzyme activity of a solvent control group that was not treated with the compound, where the concentration of each compound to inhibit enzyme activity inhibition by 50% was determined as an IC50 (nM) value and obtained using Prism (Version 5.01, GraphPad) software.
In the table below, the following designations were used for the evaluation of enzyme inhibitory ability.

The target of a further assay is LRRK2 (G2019S) (Homo sapiens, UniProt Q5S007, G2019S). Put plainly: LRRK2 G2019S enzyme inhibition, ADP-Glo kinase assay. Also noted: purchased SignalChem L10-12GG. In a few lines: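 Purified human LRRK2 G2019S (16 ng) with 25 μM ATP and 0.2 μg substrate, 2 h at 25° C in 40 mM Tris-HCl pH 7.4, 20 mM MgCl2, 0.5 mg/ml BSA, 50 μM DTT; compound at 12 final concentrations from 50 μM downward. ADP-Glo luminescence versus solvent control gave IC50 (nM).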
Chain of LRRK2 (G2019S) (Q5S007 970-2527 G2019S limits assumed): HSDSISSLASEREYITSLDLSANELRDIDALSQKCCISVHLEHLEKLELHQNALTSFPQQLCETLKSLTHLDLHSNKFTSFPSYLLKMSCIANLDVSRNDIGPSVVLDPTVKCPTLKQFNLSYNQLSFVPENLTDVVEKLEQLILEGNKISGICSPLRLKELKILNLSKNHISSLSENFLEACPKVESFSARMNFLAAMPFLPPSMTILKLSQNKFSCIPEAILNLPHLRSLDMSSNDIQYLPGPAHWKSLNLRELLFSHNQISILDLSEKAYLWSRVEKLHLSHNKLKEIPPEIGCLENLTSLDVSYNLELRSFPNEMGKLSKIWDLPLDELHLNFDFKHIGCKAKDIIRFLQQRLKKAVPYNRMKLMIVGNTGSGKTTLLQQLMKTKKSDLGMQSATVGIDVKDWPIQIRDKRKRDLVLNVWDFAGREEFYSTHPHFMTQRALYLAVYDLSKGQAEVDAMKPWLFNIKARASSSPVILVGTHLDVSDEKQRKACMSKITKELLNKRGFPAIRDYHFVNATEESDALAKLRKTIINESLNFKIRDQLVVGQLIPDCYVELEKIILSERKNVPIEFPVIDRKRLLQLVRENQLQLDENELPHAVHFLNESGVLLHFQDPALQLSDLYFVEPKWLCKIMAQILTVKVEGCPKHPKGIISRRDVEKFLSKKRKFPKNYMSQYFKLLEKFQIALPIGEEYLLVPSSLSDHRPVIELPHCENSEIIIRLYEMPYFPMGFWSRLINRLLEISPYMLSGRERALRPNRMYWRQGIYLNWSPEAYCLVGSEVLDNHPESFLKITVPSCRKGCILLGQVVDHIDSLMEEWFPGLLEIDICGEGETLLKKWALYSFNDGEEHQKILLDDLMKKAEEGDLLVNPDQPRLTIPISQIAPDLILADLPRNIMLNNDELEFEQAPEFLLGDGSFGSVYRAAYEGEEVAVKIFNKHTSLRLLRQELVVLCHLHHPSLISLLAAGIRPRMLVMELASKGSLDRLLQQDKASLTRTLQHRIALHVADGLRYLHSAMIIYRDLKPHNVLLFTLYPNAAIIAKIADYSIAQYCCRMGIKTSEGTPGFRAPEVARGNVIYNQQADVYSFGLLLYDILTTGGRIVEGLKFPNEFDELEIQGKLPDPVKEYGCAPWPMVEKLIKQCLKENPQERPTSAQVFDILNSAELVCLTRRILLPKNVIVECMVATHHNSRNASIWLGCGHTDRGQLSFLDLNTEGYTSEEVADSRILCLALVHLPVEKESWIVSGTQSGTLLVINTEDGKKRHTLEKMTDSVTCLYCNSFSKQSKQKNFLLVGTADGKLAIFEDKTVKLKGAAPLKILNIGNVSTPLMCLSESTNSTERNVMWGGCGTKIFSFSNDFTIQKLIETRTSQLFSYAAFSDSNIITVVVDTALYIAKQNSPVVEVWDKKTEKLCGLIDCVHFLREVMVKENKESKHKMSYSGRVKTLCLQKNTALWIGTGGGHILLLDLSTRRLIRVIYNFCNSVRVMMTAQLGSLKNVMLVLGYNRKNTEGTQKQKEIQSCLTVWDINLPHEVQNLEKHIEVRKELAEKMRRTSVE

Molecules are shown by their SMILES.

T1 sequence (P49759 129-484 limits assumed): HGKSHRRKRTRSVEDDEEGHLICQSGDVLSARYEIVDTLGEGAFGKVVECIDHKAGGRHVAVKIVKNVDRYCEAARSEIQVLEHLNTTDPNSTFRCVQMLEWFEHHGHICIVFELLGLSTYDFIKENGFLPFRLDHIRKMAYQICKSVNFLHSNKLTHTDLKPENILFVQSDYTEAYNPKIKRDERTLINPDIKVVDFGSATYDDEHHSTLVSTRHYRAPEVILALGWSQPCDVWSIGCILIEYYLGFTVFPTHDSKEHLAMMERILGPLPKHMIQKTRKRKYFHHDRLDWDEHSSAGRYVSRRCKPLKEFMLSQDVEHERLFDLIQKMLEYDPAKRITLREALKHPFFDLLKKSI
Chain of LRRK2 (Q5S007 970-2527 limits assumed): as the sequence (Q5S007 970-2527 G2019S limits assumed) above, with S1050G counted along it

Turning to `COCCNc1cc(Nc2ccc(P3(=O)CCN(C4COC4)CC3)cc2OC)nc2[nH]cc(C#N)c12` [Example 144, 6-((2-methoxy-4-(1-(oxetan-3-yl)-4-oxido-1,4-azaphosphinan-4-yl)phenyl)amino)-4-((2-methoxyethyl)amino)-1H-pyrrolo[2,3-b]pyridine-3-carbonitrile], the IC50 was 0.101 to 0.3 µM at human GST-CLK1 (129-end), 0.301 to 1 µM in assay [1] and under 0.1 µM against LRRK2.

Regarding `CNc1cc(Nc2ccc(C(=O)N3C[C@@H]4C[C@H]3CO4)c3c2OCCO3)nc2[nH]cc(C(F)(F)F)c12` [Example 43, ((1S,4S)-2-oxa-5-azabicyclo[2.2.1]heptan-5-yl)(8-((4-(methylamino)-3-(trifluoromethyl)-1H-pyrrolo[2,3-b]pyridin-6-yl)amino)-2,3-dihydrobenzo[b] [1,4]dioxin-5-yl)methanone], the IC50 (against human GST-CLK1 (129-end); in assay [1]; against LRRK2) was under 0.1 µM in each case.

With `CNc1cc(Nc2ccc(S(C)(=N)=O)cc2OC)nc2[nH]cc(C(F)(F)F)c12` (stereo not drawn) [Example 103, N^6-(2-methoxy-4-(s-methylsulfonylimidoyl)phenyl)-N^4-methyl-3-(trifluoromethyl)-1H-pyrrolo[2,3-b]pyridine-4,6-diamine], the figures for the IC50 (against human GST-CLK1 (129-end); in assay [1]; at LRRK2) were 0.301 to 1 µM, 0.301 to 1 µM and 0.101 to 0.3 µM, respectively.

Turning to `CCNc1cc(Nc2ccc(P3(=O)CCN(CC)CC3)cc2OC)nc2[nH]cc(C(F)(F)F)c12` [Example 210, 1-ethyl-4-(4-((4-(ethylamino)-3-(trifluoromethyl)-1H-pyrrolo[2,3-b]pyridin-6-yl)amino)-3-methoxyphenyl)-1,4-azaphosphinane 4-oxide], the IC50 (on human GST-CLK1 (129-end); in assay [1]; against LRRK2) was under 0.1 µM throughout.

For `COc1cc(P2(=O)CCN(C3CC3)CC2)ccc1Nc1cc(C2CC2)c2c(C(F)(F)F)c[nH]c2n1` [Example 218, 1-cyclopropyl-4-(4-((4-cyclopropyl-3-(trifluoromethyl)-1H-pyrrolo[2,3-b]pyridin-6-yl)amino)-3-methoxyphenyl)-1,4-azaphosphinane 4-oxide], the IC50 is 0.301 to 1 µM against human GST-CLK1 (129-end), 0.301 to 1 µM in assay [1] and under 0.1 µM at LRRK2.

For the compound `CCNc1cc(Nc2ccc(P3(=O)CCN(C4COC4)CC3)cc2OC)nc2[nH]cc(C#N)c12` [Example 143, 4-(ethylamino)-6-((2-methoxy-4-(1-(oxetan-3-yl)-4-oxido-1,4-azaphosphinan-4-yl)phenyl)amino)-1H-pyrrolo[2,3-b]pyridine-3-carbonitrile], the half-inhibitory concentration (IC50) against human GST-CLK1 (129-end) was 0.101 to 0.3 µM; in assay [1] it was 0.301 to 1 µM; against LRRK2 it was under 0.1 µM.

In the case of `COc1cc(P2(=O)CCN(C3CC3)CC2)ccc1Nc1cc(NC2CCC2)c2c(C(F)(F)F)c[nH]c2n1` [Example 46, 4-(4-((4-(cyclobutylamino)-3-(trifluoromethyl)-1H-pyrrolo[2,3-b]pyridin-6-yl)amino)-3-methoxyphenyl)-1-cyclopropyl-1,4-azaphosphinane 4-oxide], the IC50 (against human GST-CLK1 (129-end); in assay [1]; against LRRK2) was 0.301 to 1 µM throughout.

On to `CCNc1cc(Nc2ccc(P3(=O)CCN(C4CC4)CC3)cc2OC)nc2[nH]cc(C#N)c12` [Example 147, 6-((4-(1-cyclopropyl-4-oxido-1,4-azaphosphinan-4-yl)-2-methoxyphenyl)amino)-4-(ethylamino)-1H-pyrrolo[2,3-b]pyridine-3-carbonitrile], for which the IC50 at human GST-CLK1 (129-end) is 0.301 to 1 µM; in assay [1] it was under 0.1 µM; on LRRK2 it was under 0.1 µM.

Take `CCCNc1cc(Nc2ccc(P3(=O)CCN(C4CC4)CC3)cc2OC)nc2[nH]cc(C(F)(F)F)c12` [Example 45, 1-cyclopropyl-4-(3-methoxy-4-((4-(propylamino)-3-(trifluoromethyl)-1H-pyrrolo[2,3-b]pyridin-6-yl)amino)phenyl)-1,4-azaphosphinane 4-oxide]: the IC50 against human GST-CLK1 (129-end) lay within 0.301 to 1 µM; in assay [1] it was 0.101 to 0.3 µM; at LRRK2, 0.101 to 0.3 µM.

For the compound `CN(C)CCNc1cc(Nc2ccc(C(=O)N3CCC(N4CCOCC4)CC3)c3c2OCCO3)nc2[nH]cc(C(F)(F)F)c12` [Example 172, (8-((4-((2-(dimethylamino)ethyl)amino)-3-(trifluoromethyl)-1H-pyrrolo[2,3-b]pyridin-6-yl)amino)-2,3-dihydrobenzo[b] [1,4]dioxin-5-yl)(4-morpholinopiperidin-1-yl)methanone], the IC50 at human GST-CLK1 (129-end) is 0.101 to 0.3 µM; in assay [1] it was 0.301 to 1 µM; on LRRK2, under 0.1 µM.

For the compound `CN(C)c1cc(Nc2ccc(C(=O)N3CCC(N4CCOCC4)CC3)c3c2OCCO3)nc2[nH]cc(C(F)(F)F)c12` [Example 50, (8-((4-(dimethylamino)-3-(trifluoromethyl)-1H-pyrrolo[2,3-b]pyridin-6-yl)amino)-2,3-dihydrobenzo[b] [1,4]dioxin-5-yl)(4-morpholinopiperidin-1-yl)methanone], the IC50 on human GST-CLK1 (129-end) is under 0.1 µM; in assay [1], 0.301 to 1 µM; against LRRK2, under 0.1 µM.

Regarding `CN(C)CCNc1cc(Nc2ccc(C(=O)N3CCOCC3)c3c2OCCO3)nc2[nH]cc(C(F)(F)F)c12` [Example 171, (8-((4-((2-(dimethylamino)ethyl)amino)-3-(trifluoromethyl)-1H-pyrrolo[2,3-b]pyridin-6-yl)amino)-2,3-dihydrobenzo [b] [1,4]dioxin-5-yl)(morpholino) methanone], the IC50 on human GST-CLK1 (129-end) is 0.301 to 1 µM; in assay [1], 0.301 to 1 µM; against LRRK2 it was under 0.1 µM.

With `CCNc1cc(Nc2ccc(C(=O)N3CCOCC3)c3c2OCCO3)nc2[nH]cc(Cl)c12` [Example 57, (8-((3-chloro-4-(ethylamino)-1H-pyrrolo[2,3-b]pyridin-6-yl)amino)-2,3-dihydrobenzo[b] [1,4]dioxin-5-yl)(morpholino) methanone], the IC50 on human GST-CLK1 (129-end) was 0.301 to 1 µM; against LRRK2 (G2019S), under 0.1 µM; in assay [1], 0.301 to 1 µM.

`CCCNc1cc(Nc2ccc(C(=O)N3CCOCC3)c3c2OCCO3)nc2[nH]ccc12` [Example 4, morpholino(8-((4-(propylamino)-1H-pyrrolo[2,3-b]pyridin-6-yl)amino)-2,3-dihydrobenzo [b] [1,4]dioxin-5-yl)(morpholino) methanone 2,2,2-trifluoroacetate]: the IC50 at human GST-CLK1 (129-end) is 0.301 to 1 µM; against LRRK2 (G2019S), under 0.1 µM; in assay [1], 0.301 to 1 µM.

As for `CCNc1cc(Nc2ccc(C(=O)N3CCO[C@H](C)C3)c3c2OCC3)nc2[nH]cc(C(F)(F)F)c12` [Example 260, (R)-(7-((4-(ethylamino)-3-(trifluoromethyl)-1H-pyrrolo[2,3-b]pyridin-6-yl)amino)-2,3-dihydrobenzofuran-4-yl)(2-methylmorpholino) methanone], the IC50 (on human GST-CLK1 (129-end); on LRRK2 (G2019S); in assay [1]) was under 0.1 µM each time.

As for `CCNc1cc(Nc2ccc(S(C)(=O)=O)cc2OC)nc2[nH]cc(Cl)c12` [Example 81, 3-chloro-N^4-ethyl-N^6-(2-methoxy-4-(methylsulfonyl)phenyl)-1H-pyrrolo[2,3-b]pyridine-4,6-diamine], the IC50 (against human GST-CLK1 (129-end); on LRRK2 (G2019S); in assay [1]) was 0.301 to 1 µM in each case.

Take `CNc1cc(Nc2ccc(C(=O)N3CCOCC3)c3c2OCCO3)nc2[nH]ccc12` [Example 2, (8-((4-(Methylamino)-1H-pyrrolo[2,3-b]pyridine-6-yl)amino)-2,3-dihydrobenzo[b] [1,4]dioxin-5-yl)(morpholino) methanone]: the IC50 against human GST-CLK1 (129-end) was 0.301 to 1 µM; against LRRK2 (G2019S) it was under 0.1 µM; in assay [1] it was 0.301 to 1 µM.

Turning to `CCCNc1cc(Nc2ccc(S(C)(=O)=O)cc2OC)nc2[nH]cc(Cl)c12` [Example 82, 3-chloro-N^6-(2-methoxy-4-(methylsulfonyl)phenyl)-N^4-propyl-1H-pyrrolo[2,3-b]pyridine-4,6-diamine], the IC50 (on human GST-CLK1 (129-end); against LRRK2 (G2019S); in assay [1]) was 0.301 to 1 µM each time.

These data come from US12240844B2 (Voronoi, Inc., priority 2019, dated 2025).
